Common to all, as to type: cell-based
One experiment deals with T1, Human Nav1.8 (Homo sapiens, UniProt Q9Y5Y9).
T1 construct: expressed in transfected cells; host or cells: HEK293
Kind of experiment: VIPR Assay for Nav1.8 Compounds (FRET membrane potential, deltamethrin opener). To be noted: VIPR FRET membrane potential assay, deltamethrin opener; average of replicates; read-out: Nav1.8 IC50.

The test system of experiment [1] is tetrodotoxin-sensitive voltage-gated sodium channels including NaV1.2, NaV1.3 and NaV1.7. Kind of experiment: TTX-S Assay (VIPR, SHSY-5Y cell line, veratridine opener). To be noted: read-out: TTX-S IC50, veratridine 50 μM opener, average of replicates.
A further experiment has as its target T2, Human Nav1.5 (Homo sapiens, UniProt Q14524).
T2 construct: expressed in transfected cells; host or cells: HEK293
Kind of experiment: Nav1.5 Assay (VIPR, HEK293 cells). To be noted: HEK293 cells expressing Human Nav1.5; average of replicates; read-out: Nav1.5 IC50. How it is done:
The Nav1.5 assay is performed in HEK293 cells expressing Human Nav1.5 in the same way as the Nav1.8 assay.
Where replicate experiments were conducted resulting in multiple sets of data for a test compound, the data presented represent the average value from all replicate experiments.

Experimental findings from US8134007B2, “Pyridine derivatives” (Pfizer Inc., priority 2007, dated 2012) are described below.

SMILES strings stand for the structures. A value given as a limit tells only on which side of the number the result lay.

T1 sequence (Q9Y5Y9 whole entry): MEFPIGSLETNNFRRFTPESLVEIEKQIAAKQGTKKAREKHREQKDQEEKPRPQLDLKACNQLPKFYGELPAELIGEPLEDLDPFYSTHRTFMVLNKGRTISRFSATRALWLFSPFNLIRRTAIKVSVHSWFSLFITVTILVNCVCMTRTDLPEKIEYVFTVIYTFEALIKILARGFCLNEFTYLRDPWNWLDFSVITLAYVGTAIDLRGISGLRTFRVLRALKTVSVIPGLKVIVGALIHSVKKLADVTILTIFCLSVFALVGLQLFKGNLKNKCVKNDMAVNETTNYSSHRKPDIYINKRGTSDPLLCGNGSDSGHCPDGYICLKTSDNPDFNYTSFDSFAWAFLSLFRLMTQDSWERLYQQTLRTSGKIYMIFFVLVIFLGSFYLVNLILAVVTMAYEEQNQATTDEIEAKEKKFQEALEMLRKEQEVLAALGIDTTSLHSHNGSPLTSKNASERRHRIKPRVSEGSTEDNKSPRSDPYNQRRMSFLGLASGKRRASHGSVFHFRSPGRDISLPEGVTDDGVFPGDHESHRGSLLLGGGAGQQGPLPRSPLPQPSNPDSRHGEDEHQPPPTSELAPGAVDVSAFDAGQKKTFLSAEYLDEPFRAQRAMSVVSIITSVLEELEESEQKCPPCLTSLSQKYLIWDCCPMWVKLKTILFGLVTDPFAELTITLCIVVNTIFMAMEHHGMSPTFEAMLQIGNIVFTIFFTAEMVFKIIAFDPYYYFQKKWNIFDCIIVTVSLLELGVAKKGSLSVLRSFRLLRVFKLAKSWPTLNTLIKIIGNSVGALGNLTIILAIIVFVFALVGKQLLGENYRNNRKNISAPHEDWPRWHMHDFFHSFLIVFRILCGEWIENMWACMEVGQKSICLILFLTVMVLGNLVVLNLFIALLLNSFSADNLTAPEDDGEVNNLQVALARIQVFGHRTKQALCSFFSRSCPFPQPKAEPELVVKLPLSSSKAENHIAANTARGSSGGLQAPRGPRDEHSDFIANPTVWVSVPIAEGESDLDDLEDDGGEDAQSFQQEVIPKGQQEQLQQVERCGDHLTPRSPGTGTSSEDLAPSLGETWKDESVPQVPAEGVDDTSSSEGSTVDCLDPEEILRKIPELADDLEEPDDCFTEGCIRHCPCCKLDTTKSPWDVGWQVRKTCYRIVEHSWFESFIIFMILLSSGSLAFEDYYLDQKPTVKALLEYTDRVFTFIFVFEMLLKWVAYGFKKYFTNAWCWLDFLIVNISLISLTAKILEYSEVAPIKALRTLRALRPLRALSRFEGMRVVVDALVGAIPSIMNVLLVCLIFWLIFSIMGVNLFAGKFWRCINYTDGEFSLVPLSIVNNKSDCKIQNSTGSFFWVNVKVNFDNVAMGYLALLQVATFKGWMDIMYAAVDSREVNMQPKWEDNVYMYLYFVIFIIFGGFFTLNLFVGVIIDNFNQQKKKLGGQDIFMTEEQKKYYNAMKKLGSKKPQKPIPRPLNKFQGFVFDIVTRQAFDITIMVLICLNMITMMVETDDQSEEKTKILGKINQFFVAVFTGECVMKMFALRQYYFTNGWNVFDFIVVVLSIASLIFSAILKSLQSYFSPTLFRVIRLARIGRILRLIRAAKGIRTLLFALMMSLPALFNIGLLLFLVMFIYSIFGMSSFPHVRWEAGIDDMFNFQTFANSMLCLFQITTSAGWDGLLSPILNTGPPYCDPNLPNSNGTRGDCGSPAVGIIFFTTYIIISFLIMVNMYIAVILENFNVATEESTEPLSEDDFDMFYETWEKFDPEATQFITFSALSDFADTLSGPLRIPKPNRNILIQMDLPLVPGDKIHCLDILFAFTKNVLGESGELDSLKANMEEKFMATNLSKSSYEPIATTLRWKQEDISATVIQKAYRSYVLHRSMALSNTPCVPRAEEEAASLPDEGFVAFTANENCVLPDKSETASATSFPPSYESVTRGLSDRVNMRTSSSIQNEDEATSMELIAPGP
T2 sequence (Q14524 whole entry): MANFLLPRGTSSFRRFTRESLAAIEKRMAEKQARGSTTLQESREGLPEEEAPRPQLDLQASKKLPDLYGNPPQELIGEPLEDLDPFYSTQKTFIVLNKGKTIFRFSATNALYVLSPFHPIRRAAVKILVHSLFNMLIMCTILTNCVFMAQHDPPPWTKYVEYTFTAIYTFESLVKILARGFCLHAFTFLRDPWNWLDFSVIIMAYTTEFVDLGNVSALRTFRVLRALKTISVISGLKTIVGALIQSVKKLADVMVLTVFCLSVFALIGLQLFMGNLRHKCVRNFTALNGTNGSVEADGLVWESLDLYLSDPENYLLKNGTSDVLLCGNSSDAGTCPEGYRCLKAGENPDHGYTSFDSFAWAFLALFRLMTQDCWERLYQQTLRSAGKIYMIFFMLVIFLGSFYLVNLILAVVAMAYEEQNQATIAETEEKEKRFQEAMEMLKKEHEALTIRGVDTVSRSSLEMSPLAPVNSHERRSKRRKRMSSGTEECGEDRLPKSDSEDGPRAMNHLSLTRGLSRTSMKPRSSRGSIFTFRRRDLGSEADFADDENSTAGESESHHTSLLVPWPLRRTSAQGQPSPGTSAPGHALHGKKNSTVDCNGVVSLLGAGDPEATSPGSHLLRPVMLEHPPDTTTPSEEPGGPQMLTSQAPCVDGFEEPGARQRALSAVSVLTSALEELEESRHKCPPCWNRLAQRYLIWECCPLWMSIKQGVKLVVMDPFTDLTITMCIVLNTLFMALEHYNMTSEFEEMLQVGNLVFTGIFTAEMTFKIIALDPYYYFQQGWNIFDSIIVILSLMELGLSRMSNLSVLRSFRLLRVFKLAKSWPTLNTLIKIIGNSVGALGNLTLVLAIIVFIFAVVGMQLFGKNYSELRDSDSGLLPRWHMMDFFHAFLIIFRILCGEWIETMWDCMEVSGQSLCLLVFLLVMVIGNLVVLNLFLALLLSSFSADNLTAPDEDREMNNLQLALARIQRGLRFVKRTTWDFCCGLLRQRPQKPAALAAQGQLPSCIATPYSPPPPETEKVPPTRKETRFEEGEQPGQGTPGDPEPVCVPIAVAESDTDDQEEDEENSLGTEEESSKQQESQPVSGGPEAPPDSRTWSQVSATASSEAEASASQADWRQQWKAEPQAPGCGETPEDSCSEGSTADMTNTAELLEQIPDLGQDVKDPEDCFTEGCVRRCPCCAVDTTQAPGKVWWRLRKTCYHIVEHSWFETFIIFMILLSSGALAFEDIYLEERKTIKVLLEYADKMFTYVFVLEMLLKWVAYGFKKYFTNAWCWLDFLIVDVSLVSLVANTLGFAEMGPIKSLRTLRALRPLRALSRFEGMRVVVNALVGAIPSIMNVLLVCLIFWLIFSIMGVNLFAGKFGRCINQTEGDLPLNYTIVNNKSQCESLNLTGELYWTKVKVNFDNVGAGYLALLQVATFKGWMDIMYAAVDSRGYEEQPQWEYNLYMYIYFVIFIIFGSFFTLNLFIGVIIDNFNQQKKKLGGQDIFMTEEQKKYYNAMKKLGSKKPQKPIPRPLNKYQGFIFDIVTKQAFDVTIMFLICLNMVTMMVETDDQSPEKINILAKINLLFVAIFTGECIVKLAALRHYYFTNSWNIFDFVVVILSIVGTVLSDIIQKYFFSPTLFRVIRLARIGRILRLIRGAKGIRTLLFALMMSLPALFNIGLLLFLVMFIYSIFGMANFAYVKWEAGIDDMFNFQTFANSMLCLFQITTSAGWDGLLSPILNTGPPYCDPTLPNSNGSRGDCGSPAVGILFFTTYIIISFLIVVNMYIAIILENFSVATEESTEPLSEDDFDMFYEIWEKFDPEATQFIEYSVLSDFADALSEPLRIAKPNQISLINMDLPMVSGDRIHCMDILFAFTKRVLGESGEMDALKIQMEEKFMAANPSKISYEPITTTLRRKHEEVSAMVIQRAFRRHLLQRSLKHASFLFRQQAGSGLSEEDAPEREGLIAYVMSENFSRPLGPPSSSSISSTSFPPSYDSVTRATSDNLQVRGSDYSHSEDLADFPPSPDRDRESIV

By IC50 is commonly meant the midpoint of a concentration-inhibition curve. Take `Cc1nocc1C(=O)Nc1ccc(-c2cc(F)ccc2OC(F)(F)F)c(N)n1` [Example 115]: the IC50 at Human Nav1.8 came to 0.28 µM; in experiment [1], 5.3 µM; at Human Nav1.5 it was 7.9 µM.
The corresponding values for `Nc1nc(NC(=O)c2conc2C(F)(F)F)ccc1-c1cc(F)ccc1Cl` [Example 114] are 0.31 µM, 4 µM and 4.1 µM.
The matching figures for `Cc1nocc1C(=O)Nc1ccc(-c2cc(F)ccc2Cl)c(N)n1` [Example 41, N-[6-Amino-5-(2-chloro-5-fluorophenyl)pyridin-2-yl]-3-methylisoxazole-4-carboxamide]: 0.25 µM, 11 µM and 12 µM.
The matching figures for `CCn1nccc1C(=O)Nc1ccc(-c2cc(OC(F)(F)F)ccc2Cl)c(N)n1` [Example 65, N-{6-Amino-5-[2-chloro-5-(trifluoromethoxy)phenyl]pyridin-2-yl}-1-ethyl-1H-pyrazole-5-carboxamide]: 5.3 µM, 3.2 µM and 12 µM.
For the compound `CC(C)n1nccc1C(=O)Nc1ccc(-c2ccccc2OC(F)(F)F)c(N)n1` [Example 68, N-{6-Amino-5-[2-(trifluoromethoxy)phenyl]pyridin-2-yl}-1-isopropyl-1H-pyrazole-5-carboxamide], the results for the IC50 (on Human Nav1.8; in experiment [1]; at Human Nav1.5) were 3.9 µM, 5 µM and 17 µM, respectively.
The corresponding values for `Nc1nc(NC(=O)c2ccccc2)ccc1-c1ccccc1OC(F)(F)F` [Example 99] are 3.2 µM, 6.6 µM and 15 µM.
The matching figures for `Cc1oncc1C(=O)Nc1ccc(-c2ccccc2Cl)c(N)n1` [Example 20, N-[6-Amino-5-(2-chlorophenyl)pyridin-2-yl]-5-methylisoxazole-4-carboxamide]: 1 µM, 14 µM and 17 µM.
The corresponding values for `Cc1nocc1C(=O)Nc1ccc(-c2ccccc2C(F)F)c(N)n1` [Example 42, N-[6-Amino-5-[2-(difluoromethyl)phenyl]pyridin-2-yl]-3-methylisoxazole-4-carboxamide] are 2.5 µM, 22 µM and more than 32 µM.
Take `Cn1nccc1C(=O)Nc1ccc(-c2ccccc2OC(F)F)c(N)n1` [Example 19, N-{6-Amino-5-[2-(difluoromethoxy)phenyl]pyridin-2-yl}-1-methyl-1H-pyrazole-5-carboxamide]: the figures for the 50% inhibitory concentration (IC50) (at Human Nav1.8; in experiment [1]; at Human Nav1.5) were 14 µM, 25 µM and more than 32 µM, respectively.
The matching figures for `Cn1nccc1C(=O)Nc1ccc(-c2cc(F)ccc2C(F)(F)F)c(N)n1` [Example 12, N-{6-Amino-5-[5-fluoro-2-(trifluoromethyl)phenyl]pyridin-2-yl}-1-methyl-1H-pyrazole-5-carboxamide]: 3 µM, more than 32 µM and more than 32 µM.
The matching figures for `COc1ccc(Cl)c(-c2ccc(NC(=O)c3cnnn3C)nc2N)c1` [Example 83, N-[6-Amino-5-(2-chloro-5-methoxyphenyl)pyridin-2-yl]-1-methyl-1H-1,2,3-triazole-5-carboxamide]: 3.3 µM, 12 µM and 4.1 µM.
The matching figures for `Cn1ccc(C(=O)Nc2ccc(-c3cc(Cl)cc(Cl)c3Cl)c(N)n2)n1` [Example 70, N-[6-Amino-5-(2,3,5-trichlorophenyl)pyridin-2-yl]-1-methyl-1H-pyrazole-3-carboxamide]: 11 µM, 14 µM and 28 µM.
As for `Nc1nc(NC(=O)c2conc2C(F)(F)F)ccc1-c1ccccc1OC(F)(F)F` [Example 112], the IC50 on Human Nav1.8 turned out to be 0.94 µM; in experiment [1] it was 4.5 µM; at Human Nav1.5, 7.7 µM.
The corresponding values for `CCn1nccc1C(=O)Nc1ccc(-c2cc(OC(F)(F)F)ccc2F)c(N)n1` [Example 64, N-{6-Amino-5-[2-fluoro-5-(trifluoromethoxy)phenyl]pyridin-2-yl}-1-ethyl-1H-pyrazole-5-carboxamide] are 5 µM, 3.7 µM and 14 µM.
The matching figures for `COc1cc(Cl)cc(-c2ccc(NC(=O)c3ccnn3C)nc2N)c1Cl` [Example 8, N-[6-Amino-5-(2,5-dichloro-3-methoxyphenyl)pyridin-2-yl]-1-methyl-1H-pyrazole-5-carboxamide]: 1.6 µM, 7.6 µM and 20 µM.
Turning to `Cn1nncc1C(=O)Nc1ccc(-c2cc(F)ccc2Cl)c(N)n1` [Example 86, N-[6-Amino-5-(2-chloro-5-fluorophenyl)pyridin-2-yl]-1-methyl-1H-1,2,3-triazole-5-carboxamide], the IC50 was 5.3 µM at Human Nav1.8, 19 µM in experiment [1] and 7.5 µM at Human Nav1.5.
The matching figures for `Cn1nccc1C(=O)Nc1ccc(-c2ccccc2OCC(F)(F)F)c(N)n1` [Example 119]: 2 µM, 26 µM and 31 µM.
The matching figures for `Cn1nccc1C(=O)Nc1ccc(-c2ccc(Cl)cc2Cl)c(N)n1` [Example 15, N-[6-Amino-5-(2,4-dichlorophenyl)pyridin-2-yl]-1-methyl-1H-pyrazole-5-carboxamide]: 10 µM, 21 µM and 13 µM.
Turning to `Cc1nocc1C(=O)Nc1ccc(-c2ccccc2F)c(N)n1` [Example 33, N-[6-Amino-5-(2-fluorophenyl)pyridin-2-yl]-3-methylisoxazole-4-carboxamide], the IC50 at Human Nav1.8 was 6.5 µM; in experiment [1], 23 µM; on Human Nav1.5, more than 32 µM.
The corresponding values for `Cn1nccc1C(=O)Nc1ccc(-c2ccc(F)cc2Cl)c(N)n1` [Example 10, N-[6-Amino-5-(2-chloro-4-fluorophenyl)pyridin-2-yl]-1-methyl-1H-pyrazole-5-carboxamide] are 25 µM, more than 32 µM and more than 32 µM.
The corresponding values for `Nc1nc(NC(=O)c2cnon2)ccc1-c1cc(Cl)ccc1Cl` [Example 71, N-[6-Amino-5-(2,5-dichlorophenyl)pyridin-2-yl]-1,2,5-oxadiazole-3-carboxamide] are more than 32 µM, more than 32 µM and more than 32 µM.
The corresponding values for `CCn1nccc1C(=O)Nc1ccc(-c2ccccc2C(F)(F)F)c(N)n1` [Example 60, N-{6-Amino-5-[2-(trifluoromethyl)phenyl]pyridin-2-yl}-1-ethyl-1H-pyrazole-5-carboxamide] are 4.3 µM, more than 32 µM and 20 µM.
Take `COCc1cc(C(=O)Nc2ccc(-c3ccccc3Cl)c(N)n2)on1` [Example 95]: the IC50 on Human Nav1.8 is more than 32 µM; in experiment [1], 29 µM; at Human Nav1.5 it was more than 32 µM.
Turning to `CCn1nccc1C(=O)Nc1ccc(-c2cc(Cl)cc(OC)c2Cl)c(N)n1` [Example 62, N-[6-Amino-5-(2,5-dichloro-3-methoxyphenyl)pyridin-2-yl]-1-ethyl-1H-pyrazole-5-carboxamide], the half-maximal inhibitory concentration (IC50) on Human Nav1.8 turned out to be 5.1 µM; in experiment [1] it was 11 µM; on Human Nav1.5, 17 µM.
The corresponding values for `Cn1nccc1C(=O)Nc1ccc(-c2ccc(OC(F)(F)F)c(F)c2)c(N)n1` [Example 121] are 10 µM, 3.2 µM and 8.6 µM.
On to `CC(C)n1nccc1C(=O)Nc1ccc(-c2cc(F)ccc2Cl)c(N)n1` [Example 67, N-[6-Amino-5-(2-chloro-5-fluorophenyl)pyridin-2-yl]-1-isopropyl-1H-pyrazole-5-carboxamide], for which the IC50 on Human Nav1.8 was 5 µM; in experiment [1], 22 µM; at Human Nav1.5, 31 µM.
For the compound `Cc1oncc1C(=O)Nc1ccc(-c2ccccc2OC(F)(F)F)c(N)n1` [Example 23, N-{6-Amino-5-[2-(trifluoromethoxy)phenyl]pyridin-2-yl}-5-methylisoxazole-4-carboxamide], the values for the IC50 (at Human Nav1.8; in experiment [1]; at Human Nav1.5) were 1.6 µM, 9.4 µM and 17 µM, respectively.
The corresponding values for `COCc1nocc1C(=O)Nc1ccc(-c2cc(F)ccc2Cl)c(N)n1` [Example 90, N-[6-Amino-5-(2-chloro-5-fluorophenyl)pyridin-2-yl]-3-(methoxymethyl)isoxazole-4-carboxamide] are 0.55 µM, more than 32 µM and more than 32 µM.
On to `CCn1nccc1C(=O)Nc1ccc(-c2cc(F)ccc2Cl)c(N)n1` [Example 54, N-[6-Amino-5-(2-chloro-5-fluorophenyl)pyridin-2-yl]-1-ethyl-1H-pyrazole-5-carboxamide], for which the IC50 was 1.2 µM on Human Nav1.8, 18 µM in experiment [1] and 20 µM at Human Nav1.5.
The corresponding values for `CCn1nccc1C(=O)Nc1ccc(-c2cccc(F)c2Cl)c(N)n1` [Example 58, N-[6-Amino-5-(2-chloro-3-fluorophenyl)pyridin-2-yl]-1-ethyl-1H-pyrazole-5-carboxamide] are 9.3 µM, 17 µM and 31 µM.
Consider `Cn1nncc1C(=O)Nc1ccc(-c2ccccc2Cl)c(N)n1` [Example 82, N-[6-Amino-5-(2-chlorophenyl)pyridin-2-yl]-1-methyl-1H-1,2,3-triazole-5-carboxamide], for which the IC50 at Human Nav1.8 is 9.3 µM; in experiment [1], more than 32 µM; at Human Nav1.5, more than 32 µM.
Take `COCc1oncc1C(=O)Nc1ccc(-c2ccccc2Cl)c(N)n1` [Example 91]: the figures for the IC50 (on Human Nav1.8; in experiment [1]; on Human Nav1.5) were 2.6 µM, more than 32 µM and more than 32 µM, respectively.
